One assay has as its target Cytochrome P450 3A4 (Homo sapiens, UniProt P08684). The assay is described as follows: Inhibition of CYP3A4 (unknown origin).
A further assay has as its target Cytochrome P450 2D6 (Homo sapiens, UniProt P10635). The assay is described as follows: Inhibition of CYP2D6 (unknown origin).
The next assay addresses T1, Cytochrome P450 1A2 (Homo sapiens, UniProt P05177).
T1 sequence (P05177 whole entry): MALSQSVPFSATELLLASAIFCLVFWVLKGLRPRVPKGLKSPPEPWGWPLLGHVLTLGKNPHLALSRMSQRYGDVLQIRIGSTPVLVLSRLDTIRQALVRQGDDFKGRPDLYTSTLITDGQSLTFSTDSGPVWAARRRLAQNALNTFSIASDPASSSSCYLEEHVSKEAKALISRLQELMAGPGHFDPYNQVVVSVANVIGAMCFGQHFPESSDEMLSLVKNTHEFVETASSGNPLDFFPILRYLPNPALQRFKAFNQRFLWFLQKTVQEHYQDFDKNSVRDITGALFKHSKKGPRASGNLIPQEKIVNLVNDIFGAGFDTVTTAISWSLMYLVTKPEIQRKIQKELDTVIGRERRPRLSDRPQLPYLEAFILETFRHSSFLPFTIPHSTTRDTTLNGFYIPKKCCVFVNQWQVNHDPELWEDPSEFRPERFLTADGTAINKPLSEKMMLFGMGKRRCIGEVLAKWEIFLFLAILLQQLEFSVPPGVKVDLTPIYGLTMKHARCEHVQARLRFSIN
The assay is described as follows: Inhibition of CYP1A2 (unknown origin).

Another assay addresses Cytochrome P450 2C9 (Homo sapiens, UniProt P11712). The assay is described as follows: Inhibition of CYP2C9 (unknown origin).
For a further assay, the target named is Cytochrome P450 2C19 (Homo sapiens, UniProt P33261). Kind of assay: Inhibition of CYP2C19 (unknown origin).
Cytochrome P450 2C19, sequence (P33261 whole entry): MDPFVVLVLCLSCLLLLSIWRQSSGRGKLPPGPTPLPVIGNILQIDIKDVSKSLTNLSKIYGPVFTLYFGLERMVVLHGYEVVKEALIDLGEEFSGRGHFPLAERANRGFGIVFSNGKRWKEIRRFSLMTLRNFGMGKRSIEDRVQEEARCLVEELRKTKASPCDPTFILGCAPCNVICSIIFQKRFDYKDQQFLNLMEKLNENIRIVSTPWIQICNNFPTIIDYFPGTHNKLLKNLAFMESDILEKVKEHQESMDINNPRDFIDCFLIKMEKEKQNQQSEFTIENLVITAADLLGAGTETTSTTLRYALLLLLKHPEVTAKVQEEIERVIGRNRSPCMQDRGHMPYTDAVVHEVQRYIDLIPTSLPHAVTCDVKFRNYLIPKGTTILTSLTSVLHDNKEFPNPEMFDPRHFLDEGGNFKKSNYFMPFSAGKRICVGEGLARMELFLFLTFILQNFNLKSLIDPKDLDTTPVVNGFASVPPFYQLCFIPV
The target in assay [1] is Potassium voltage-gated channel subfamily H member 2 (Homo sapiens, UniProt Q12809). Kind of assay: Inhibition of hERG.
Potassium voltage-gated channel subfamily H member 2, sequence (Q12809 whole entry): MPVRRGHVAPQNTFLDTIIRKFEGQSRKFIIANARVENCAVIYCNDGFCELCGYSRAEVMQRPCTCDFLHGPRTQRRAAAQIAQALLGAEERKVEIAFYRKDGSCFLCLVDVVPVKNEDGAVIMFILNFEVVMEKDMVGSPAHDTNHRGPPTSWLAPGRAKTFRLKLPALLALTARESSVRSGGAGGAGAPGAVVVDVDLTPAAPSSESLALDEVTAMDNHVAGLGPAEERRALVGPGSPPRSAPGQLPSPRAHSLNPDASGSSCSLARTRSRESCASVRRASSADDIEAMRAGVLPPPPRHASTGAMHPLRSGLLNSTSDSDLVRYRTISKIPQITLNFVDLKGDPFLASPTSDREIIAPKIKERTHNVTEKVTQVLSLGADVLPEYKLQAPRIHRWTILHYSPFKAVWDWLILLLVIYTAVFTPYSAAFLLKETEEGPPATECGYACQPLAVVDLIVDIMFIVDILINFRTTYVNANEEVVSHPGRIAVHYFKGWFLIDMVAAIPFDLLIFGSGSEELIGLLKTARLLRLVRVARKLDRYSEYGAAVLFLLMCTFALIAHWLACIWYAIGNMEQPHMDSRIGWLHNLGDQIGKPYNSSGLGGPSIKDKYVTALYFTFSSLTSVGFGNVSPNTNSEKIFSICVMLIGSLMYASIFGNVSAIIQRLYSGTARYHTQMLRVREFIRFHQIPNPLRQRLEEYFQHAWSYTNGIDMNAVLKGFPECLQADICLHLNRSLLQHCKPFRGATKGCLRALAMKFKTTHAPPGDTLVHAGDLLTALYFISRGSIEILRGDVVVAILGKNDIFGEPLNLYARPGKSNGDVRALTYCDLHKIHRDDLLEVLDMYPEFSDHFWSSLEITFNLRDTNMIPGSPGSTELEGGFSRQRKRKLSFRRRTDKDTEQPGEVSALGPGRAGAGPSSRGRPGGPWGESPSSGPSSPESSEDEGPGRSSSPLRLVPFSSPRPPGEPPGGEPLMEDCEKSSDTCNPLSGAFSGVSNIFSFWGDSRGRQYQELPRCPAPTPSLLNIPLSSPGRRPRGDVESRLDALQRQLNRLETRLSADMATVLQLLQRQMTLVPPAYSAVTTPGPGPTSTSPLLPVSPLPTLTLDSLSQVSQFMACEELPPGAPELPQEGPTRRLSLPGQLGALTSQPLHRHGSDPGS

This is an account of results in BindingDB's records for doi:10.1021/jf000548p (Institut Pasteur Korea, 2020).

The term IC50 denotes the midpoint of a concentration-inhibition curve.

Cytochrome P450 2D6, sequence (P10635 whole entry): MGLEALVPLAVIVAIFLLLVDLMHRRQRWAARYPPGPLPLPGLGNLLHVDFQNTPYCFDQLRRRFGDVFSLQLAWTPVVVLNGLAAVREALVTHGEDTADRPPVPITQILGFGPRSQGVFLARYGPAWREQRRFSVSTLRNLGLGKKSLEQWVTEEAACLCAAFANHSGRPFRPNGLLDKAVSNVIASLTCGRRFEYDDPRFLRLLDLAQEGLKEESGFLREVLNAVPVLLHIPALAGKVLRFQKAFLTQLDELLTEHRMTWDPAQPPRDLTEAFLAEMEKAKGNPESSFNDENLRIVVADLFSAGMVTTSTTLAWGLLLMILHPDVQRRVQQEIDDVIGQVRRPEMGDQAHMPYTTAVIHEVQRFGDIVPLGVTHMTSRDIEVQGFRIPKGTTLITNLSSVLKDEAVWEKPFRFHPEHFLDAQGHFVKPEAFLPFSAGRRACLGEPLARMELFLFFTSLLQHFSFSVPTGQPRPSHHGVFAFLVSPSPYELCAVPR
Cytochrome P450 2C9, sequence (P11712 whole entry): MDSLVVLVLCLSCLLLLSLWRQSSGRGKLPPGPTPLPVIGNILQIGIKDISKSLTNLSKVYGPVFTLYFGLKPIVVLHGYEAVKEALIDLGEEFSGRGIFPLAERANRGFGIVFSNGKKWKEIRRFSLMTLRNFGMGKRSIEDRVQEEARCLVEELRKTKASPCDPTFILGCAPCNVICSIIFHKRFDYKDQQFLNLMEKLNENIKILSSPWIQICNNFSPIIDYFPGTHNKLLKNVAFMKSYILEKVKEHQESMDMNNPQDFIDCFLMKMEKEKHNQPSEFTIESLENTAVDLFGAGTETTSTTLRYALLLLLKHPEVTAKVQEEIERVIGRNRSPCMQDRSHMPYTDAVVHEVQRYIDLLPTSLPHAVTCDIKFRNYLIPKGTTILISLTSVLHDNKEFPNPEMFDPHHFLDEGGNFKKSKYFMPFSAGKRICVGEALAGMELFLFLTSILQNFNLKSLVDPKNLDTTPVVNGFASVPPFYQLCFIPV
Cytochrome P450 3A4, sequence (P08684 whole entry): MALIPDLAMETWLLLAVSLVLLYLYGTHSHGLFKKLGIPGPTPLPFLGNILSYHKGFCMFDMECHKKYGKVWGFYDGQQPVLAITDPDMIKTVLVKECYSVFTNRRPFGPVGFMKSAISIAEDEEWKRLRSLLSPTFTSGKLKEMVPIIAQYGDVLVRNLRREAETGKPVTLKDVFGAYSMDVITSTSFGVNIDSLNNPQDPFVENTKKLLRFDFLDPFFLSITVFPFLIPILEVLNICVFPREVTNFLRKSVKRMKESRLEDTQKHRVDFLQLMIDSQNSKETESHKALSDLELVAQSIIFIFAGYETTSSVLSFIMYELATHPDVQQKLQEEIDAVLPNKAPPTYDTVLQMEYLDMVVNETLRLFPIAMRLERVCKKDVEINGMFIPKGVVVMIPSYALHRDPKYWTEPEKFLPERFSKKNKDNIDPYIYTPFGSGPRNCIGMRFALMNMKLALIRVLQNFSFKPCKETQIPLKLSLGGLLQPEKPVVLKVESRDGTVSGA

`Cc1nc2cc(NC(=O)c3cc4sc(N5CCC(C(=O)N(C)C)CC5)nc4s3)ccc2o1`: the half-inhibitory concentration (IC50) against Cytochrome P450 3A4 was over 50 µM; on Cytochrome P450 2D6, over 50 µM; on Cytochrome P450 1A2, over 50 µM; against Cytochrome P450 2C9 it was over 50 µM; against Cytochrome P450 2C19, over 50 µM; in assay [1] it was over 30 µM.
For the compound `O=C(Nc1ccc(-c2ccc(F)cn2)cc1)c1cc2sc(NCCN3CCOCC3)nc2s1`, the concentration for half-maximal inhibition (IC50) was 6.95 µM on Cytochrome P450 3A4; 6.85 µM against Cytochrome P450 2D6; over 100 µM on Cytochrome P450 1A2; 7.41 µM at Cytochrome P450 2C9; over 100 µM against Cytochrome P450 2C19; 27.6 µM in assay [1].
